Assay results as given in ChEMBL document CHEMBL4334539, “Discovery of VU6015929: A Selective Discoidin Domain Receptor 1/2 (DDR1/2) Inhibitor to Explore the Role of DDR1 in Antifibrotic Therapy” (ACS Med Chem Lett, 2020).

Columns and labels:
[1] = molecular target: T1, Discoidin domain-containing receptor 2 (Homo sapiens, UniProt Q16832); test: Inhibition of kinase tracer 178 binding to recombinant human His-tagged DDR2 expressed in baculovirus infected Sf9 cells incubated for 1 hr by TR-FRET based LanthaScreen Eu kinase binding assay
T1 sequence (Q16832 whole entry): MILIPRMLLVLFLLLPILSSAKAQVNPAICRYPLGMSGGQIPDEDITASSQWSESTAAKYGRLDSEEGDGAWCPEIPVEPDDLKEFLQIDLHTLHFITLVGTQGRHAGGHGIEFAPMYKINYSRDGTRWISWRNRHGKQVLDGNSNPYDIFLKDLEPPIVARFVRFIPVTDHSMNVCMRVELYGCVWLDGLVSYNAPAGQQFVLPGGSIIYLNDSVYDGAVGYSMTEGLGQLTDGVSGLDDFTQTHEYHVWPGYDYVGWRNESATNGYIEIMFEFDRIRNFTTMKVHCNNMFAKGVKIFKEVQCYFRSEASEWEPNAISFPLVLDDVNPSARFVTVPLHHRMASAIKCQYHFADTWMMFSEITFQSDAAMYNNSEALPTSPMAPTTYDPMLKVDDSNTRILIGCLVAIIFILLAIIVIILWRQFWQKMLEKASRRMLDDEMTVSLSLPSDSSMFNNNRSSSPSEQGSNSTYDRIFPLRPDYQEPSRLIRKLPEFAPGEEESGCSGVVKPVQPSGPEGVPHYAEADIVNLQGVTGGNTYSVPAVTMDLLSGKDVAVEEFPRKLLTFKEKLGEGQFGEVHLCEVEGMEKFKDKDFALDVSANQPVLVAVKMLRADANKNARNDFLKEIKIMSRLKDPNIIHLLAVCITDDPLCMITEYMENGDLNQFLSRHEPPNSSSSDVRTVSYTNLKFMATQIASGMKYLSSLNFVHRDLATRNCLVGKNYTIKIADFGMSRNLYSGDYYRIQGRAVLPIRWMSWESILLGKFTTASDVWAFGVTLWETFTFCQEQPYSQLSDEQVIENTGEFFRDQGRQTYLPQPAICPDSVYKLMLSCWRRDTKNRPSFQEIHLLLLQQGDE

[2] = Fraction unbound in rat plasma incubated for 4 hrs by LC/MS/MS analysis; assay type: ADME, cell-free
[3] = Metabolic stability in rat liver microsomes assessed as […] at 1 uM incubated for 5 mins followed by NADPH addition and measured upto 45 mins by LC/MS/MS analysis; assay type: ADME, Microsome; conditions: read-out: CLH
[4] = Clearance in Sprague-Dawley rat at 0.5 mg/kg, iv or 3 mg/kg, po measured upto 24 hrs by LC/MS/MS analysis; assay type: ADME, organism-based; conditions: in vivo
[5] = Half life in Sprague-Dawley rat at 0.5 mg/kg, iv or 3 mg/kg, po measured upto 24 hrs by LC/MS/MS analysis; assay type: ADME, organism-based; conditions: in vivo
[6] = Volume of distribution at steady state in Sprague-Dawley rat at 0.5 mg/kg, iv or 3 mg/kg, po measured upto 24 hrs by LC/MS/MS analysis; assay type: ADME, organism-based; conditions: in vivo, read-out: Vdss
[7] = Oral bioavailability in Sprague-Dawley rat at 3 mg/kg measured upto 24 hrs by LC/MS/MS analysis; assay type: ADME, organism-based; conditions: in vivo
[8] = Tmax in Sprague-Dawley rat at 3 mg/kg, po measured upto 24 hrs by LC/MS/MS analysis; assay type: ADME, organism-based; conditions: in vivo
[9] = Cytotoxicity against mesangial cells (unknown origin) expressing Hu-DDR1b assessed as reduction in cell viability at 10 uM incubated for 24 hrs by microscopic analysis; assay type: cell-based
[10] = Cytotoxicity against mesangial cells (unknown origin) expressing Hu-DDR1b assessed as reduction in cell viability at 1 uM incubated for 24 hrs by microscopic analysis; assay type: cell-based
[11] = molecular target: Epithelial discoidin domain-containing receptor 1 (Homo sapiens, UniProt Q08345); test: Inhibition of FLAG-tagged DDR1 in human HEK293 cells assessed as reduction in collagen-1-induced DDR1 phosphorylation incubated for 18 hrs by ELISA
Chain of Epithelial discoidin domain-containing receptor 1 (Q08345 whole entry, the tested form may be a part): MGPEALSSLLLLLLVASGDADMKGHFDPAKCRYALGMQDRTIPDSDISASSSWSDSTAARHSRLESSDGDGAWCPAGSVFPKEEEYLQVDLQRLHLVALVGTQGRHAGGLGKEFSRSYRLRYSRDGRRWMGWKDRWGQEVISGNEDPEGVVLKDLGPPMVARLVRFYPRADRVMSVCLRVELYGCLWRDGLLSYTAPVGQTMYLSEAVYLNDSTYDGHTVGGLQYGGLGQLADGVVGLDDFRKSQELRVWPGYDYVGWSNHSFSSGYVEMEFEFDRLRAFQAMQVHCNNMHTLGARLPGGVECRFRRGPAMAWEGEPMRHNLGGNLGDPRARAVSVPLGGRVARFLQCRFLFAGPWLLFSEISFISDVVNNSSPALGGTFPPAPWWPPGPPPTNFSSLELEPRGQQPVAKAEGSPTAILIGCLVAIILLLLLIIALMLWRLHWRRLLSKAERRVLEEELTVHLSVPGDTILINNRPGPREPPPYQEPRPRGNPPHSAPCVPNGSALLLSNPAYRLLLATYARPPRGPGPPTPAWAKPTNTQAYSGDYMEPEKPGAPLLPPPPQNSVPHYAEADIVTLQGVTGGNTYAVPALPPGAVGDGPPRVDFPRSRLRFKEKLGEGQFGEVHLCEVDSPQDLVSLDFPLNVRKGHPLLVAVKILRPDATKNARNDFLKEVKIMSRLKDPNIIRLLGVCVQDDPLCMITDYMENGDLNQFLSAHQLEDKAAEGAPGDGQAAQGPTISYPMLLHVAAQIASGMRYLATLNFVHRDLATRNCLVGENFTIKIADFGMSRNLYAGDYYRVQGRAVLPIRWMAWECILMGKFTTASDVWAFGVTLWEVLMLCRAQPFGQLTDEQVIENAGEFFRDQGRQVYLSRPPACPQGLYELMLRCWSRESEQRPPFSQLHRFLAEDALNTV

SMILES | IC50 [1] [nM] | fraction unbound at 4 h [2] | CLint scaled at 1 µM [3] [mL/min/kg] | further results
Cc1ccc(C(=O)Nc2cccc(C(F)(F)F)c2)cc1NCc1cncc(-c2ccc[nH]2)c1 | 11 | 0.001 | 62 | –
Cc1ccc(C(=O)Nc2cccc(C(F)(F)F)c2)cc1Nc1cncc(C(N)=O)c1 | – | 0.018 | 60 | Activity [10]: Toxic; IC50 [11]: 4.8 nM
Cc1ccc(C(=O)Nc2ccc(C)c(C(F)(F)F)c2)cc1NCc1cncc(-c2ccc[nH]2)c1 | 44.1 | – | – | –

Further lines, with some results ahead:

IC50 [1] [nM] | fraction unbound at 4 h [2] | CLint scaled at 1 µM [3] [mL/min/kg] | SMILES | further results
10.6 | – | – | Cc1ccc(C(=O)Nc2cccc(C(F)(F)F)c2)cc1NCc1cccnc1 | –
7.39 | 0.089 | 43.2 | Cn1ccc(-c2cncc(CNc3cc(C(=O)Nc4cccc(OC(F)(F)F)c4)ccc3F)c2)n1 | clearance [4]: 34.2 mL/min/kg; half-life [5]: 3 h; Vd [6]: 4.3 L/kg; bioavailability [7]: 12.5%; Tmax [8]: 0.75 h; Activity [9]: Non-Toxic
4.56 | 0.016 | 46 | Cc1ccc(C(=O)Nc2cccc(C(F)(F)F)c2)cc1NCc1cncc(-c2ccn(C)n2)c1 | –
6.36 | – | – | COc1cncc(CNc2cc(C(=O)Nc3cccc(C(F)(F)F)c3)ccc2C)c1 | –
4.79 | – | – | Cc1ccc(C(=O)Nc2cccc(C(F)(F)F)c2)cc1NCc1cncc(C(N)=O)c1 | –
